From publication PMC7435673, “Synthesis of α-Aminophosphonic Acid Derivatives Through the Addition of O- and S-Nucleophiles to 2H-Azirines and Their Antiproliferative Effect on A549 Human Lung Adenocarcinoma Cells” (Molecules, 2020)
Where two headings read alike, the source gives them in different places.

What was measured:
in vitro = settings: human
Text: (§1) The cytotoxicity of the new α-aminophosphine oxide and phosphonate acetals 4 and 5, β-keto-α-aminophosphonate 6, aziridines 7, 10 and 14, and allylic α-aminophosphine oxides and phosphonates 8, 9, 11, 12, 15 and 16 was investigated in vitro by checking their antiproliferative activities against the human cancer cell line A549 (carcinomic human alveolar basal epithelial cells). […] In order to assess growth inhibition, cell counting kit (CCK-8) assay was employed. […] Likewise, healthy lung cells, such as MRC-5 non-malignant lung fibroblasts were tested to study the selectivity of the cytotoxicity [49].
(§2) All stock solutions of the investigated compounds were prepared by dissolving the powered materials in appropriate amounts of DMSO. The final concentration of DMSO never exceeded 5% (v/v) in reactions. The stock solution was stored at 5 °C until it was used.
(§3) Cells were cultured according to the supplier’s instructions. […] On day 2, compounds were added and samples were incubated for 48 h. […] The absorbance of each well was determined by an Automatic ELISA Reader System (Multiskan FC, Thermo Fisher Scientific, Waltham, MA, USA) at 450 nm wavelength.

[1] = system: human cancer cell line A549 (carcinomic human alveolar basal epithelial cells); assay: Cytotoxicity (antiproliferative) CCK-8 assay, A549; settings: for IC50: read-out: Cytotoxicity IC50 Lung A549; for toxicity toward A549 (in words): in vitro, CCK-8
Text: as §1, §2, §3

[2] = system: Human colon carcinoma cell line (RKO); assay: Cytotoxicity (antiproliferative) CCK-8 assay, RKO; settings: for IC50: Homo sapiens, Colon carcinoma cell, 48 h, read-out: cytotoxicity value against human colon carcinoma cell line (RKO); for toxicity toward RKO (in words): in vitro, CCK-8
Experimental: Human colon carcinoma cell line (RKO) was also used to test the antiproliferative activity of some of our compounds. In order to assess growth inhibition, cell counting kit (CCK-8) assay was employed.
as §2
Cells were cultured according to the supplier’s instructions. Cells were seeded in 96-well plates at a density of 2–4 × 10^3 cells per well and incubated overnight in 0.1 mL of media supplied with 10% Fetal Bovine Serum (Lonza) in 5% CO2 incubator at 37 °C. On day 2, compounds were added and samples were incubated for 48 h. After treatment, 10 μL of cell counting kit-8 was added into each well for additional 2 h incubation at 37 °C. The absorbance of each well was determined by an Automatic ELISA Reader System (Multiskan FC, Thermo Fisher Scientific, Waltham, MA, USA) at 450 nm wavelength.

[3] = system: MRC-5 non-malignant lung fibroblasts; assay: Cytotoxicity CCK-8 assay, MRC-5 (selectivity); settings: in vitro, CCK-8
Text: as §1, §2, §3

[4] = Cytotoxicity CCK-8 assay, MRC-5 (selectivity); settings: human, MRC-5 non-malignant lung fibroblasts
Text: as §1, §2, §3

[5] = CCK-8, 48 h incubation, concentration corresponding to 50% growth inhibition

SMILES | melting point | IC50 ([1]; Homo sapiens, A549, 48 h) | IC50 at 48 h [4] | also measured
C[C@@]1(OCC(F)(F)F)N[C@H]1P(=O)(c1ccccc1)c1ccccc1 (relative stereo) [Compound 7, [(2S*,3S*)-3-Methyl-3-(2,2,2-trifluoroethoxy)aziridin-2-yl]diphenylphosphine oxide] | 98 to 100 °C | 3.6 ± 0.7 µM | – | IC50 at 48 h (in vitro): > 50 µM
C[C@@]1(Oc2ccccc2)N[C@H]1P(=O)(c1ccccc1)c1ccccc1 (relative stereo) [Compound 10a, [(2S*,3S*)-3-Methyl-3-phenoxyaziridin-2-yl]diphenylphosphine oxide] | 124 to 126 °C | 13.3 ± 1.69 µM | – | IC50 at 48 h (in vitro): > 50 µM
O=P(c1ccccc1)(c1ccccc1)[C@@H]1N[C@]1(Sc1ccccc1)c1ccccc1 (relative stereo) [Compound 14c, Diphenyl [(2S*,3S*)-3-phenyl-3-(phenylthio)aziridin-2-yl]phosphine oxide] | – | 1.1 ± 0.32 µM | – | IC50 at 48 h (in vitro): 4.9 ± 0.49 µM; IC50 [2]: 9.7 µM; toxicity toward MRC-5 cell line (in words) [3]: good cytotoxicity
COC(C)(OC)C(N)P(=O)(c1ccccc1)c1ccccc1 (centres unmarked) [Compound 4a, (1-Amino-2,2-dimethoxypropyl) diphenylphosphine oxide] | 125 to 127 °C | 4.4 ± 0.72 µM | > 50 µM | IC50 [2]: > 50 µM; toxicity toward RKO (in words) [2]: do not exhibited any toxicity
CCC(OC)(OC)C(N)P(=O)(c1ccccc1)c1ccccc1 (centres unmarked) [Compound 4b, (1-Amino-2,2-dimethoxybutyl)diphenylphosphine oxide] | 96 to 97 °C | 21.3 ± 0.22 µM | > 50 µM | –
COC(OC)(c1ccccc1)C(N)P(=O)(c1ccccc1)c1ccccc1 (centres unmarked) [Compound 4c, (1-Amino-2,2-dimethoxy-2-phenylethyl)diphenylphosphine oxide] | 113 to 115 °C | 16.1 ± 2.03 µM | > 50 µM | –
CCOC(C)(OCC)C(N)P(=O)(c1ccccc1)c1ccccc1 (centres unmarked) [Compound 4d, (1-Amino-2,2-diethoxypropyl)diphenylphosphine oxide] | 126 to 128 °C | 9.6 ± 1.13 µM | > 50 µM | –
COC(C)(OC)C(N)P(=O)(OC(C)C)OC(C)C (centres unmarked) [Compound 4e, Diisopropyl (1-amino-2,2-dimethoxypropyl)phosphonate] | – | – | – | IC50 [1, 5]: 4.6 ± 0.31 µM
CCOP(=O)(OCC)C(N)C(C)(OC)OC (centres unmarked) [Compound 4f, Diethyl (1-amino-2,2-dimethoxypropyl)phosphonate] | – | – | – | IC50 [1, 5]: 1.3 ± 0.1 µM
COC(C)(OC)C(NS(=O)(=O)c1ccc(C)cc1)P(=O)(c1ccccc1)c1ccccc1 (centres unmarked) [Compound 5a, N-[1-(Diphenylphosphoryl)-2,2-dimethoxypropyl]-4-methylbenzenesulfonamide] | 205 to 207 °C | 8.2 ± 0.23 µM | > 50 µM | –
COC(C)(OC)C(NS(=O)(=O)c1ccc(C)cc1)P(=O)(OC(C)C)OC(C)C (centres unmarked) [Compound 5b, Diisopropyl [2,2-dimethoxy-1-((4-methylphenyl)sulfonamido)propyl]phosphonate] | – | 1.7 ± 0.3 µM | > 50 µM | –
CCOP(=O)(OCC)C(NS(=O)(=O)c1ccc(C)cc1)C(C)(OC)OC (centres unmarked) [Compound 5c, Diethyl [2,2-dimethoxy-1-((4-methylphenyl)sulfonamido)propyl]phosphonate] | – | 4.5 ± 0.45 µM | – | IC50 (in vitro): > 50 µM
CCOC(C)(OCC)C(NS(=O)(=O)c1ccc(C)cc1)P(=O)(OCC)OCC (centres unmarked) [Compound 5d, Diethyl [2,2-diethoxy-1-((4-methylphenyl)sulfonamido)propyl]phosphonate] | – | 3.7 ± 0.49 µM | – | IC50 (in vitro): > 50 µM
CC(=O)C(NS(=O)(=O)c1ccc(C)cc1)P(=O)(OC(C)C)OC(C)C (centres unmarked) [Compound 6, Diisopropyl [1-((4-methylphenyl)sulfonamido)-2-oxopropyl]phosphonate] | 121 to 122 °C | > 50 µM | – | toxicity toward A549 (in words) [1]: do not exhibited any toxicity
C=C(OCC(F)(F)F)C(N)P(=O)(c1ccccc1)c1ccccc1 (centres unmarked) [Compound 8, [1-Amino-2-(2,2,2-trifluoroethoxy)allyl]diphenylphosphine oxide] | – | > 50 µM | > 50 µM | toxicity toward A549 (in words) [1]: do not exhibited any toxicity effect
C=C(OCC(F)(F)F)C(NS(=O)(=O)c1ccc(C)cc1)P(=O)(c1ccccc1)c1ccccc1 (centres unmarked) [Compound 9, N-[1-(Diphenylphosphoryl)-2-(2,2,2-trifluoroethoxy)allyl]-4-methylbenzenesulfonamide] | 201 to 203 °C | 3.5 ± 0.77 µM | > 50 µM | –
C=C(Oc1ccccc1)C(N)P(=O)(c1ccccc1)c1ccccc1 (centres unmarked) [Compound 11a, (1-Amino-2-phenoxyallyl)diphenylphosphine oxide] | – | 1.9 ± 0.13 µM | > 50 µM | IC50 [2]: > 50 µM; toxicity toward RKO (in words) [2]: do not exhibited any toxicity
C=C(Oc1ccc2ccccc2c1)C(N)P(=O)(c1ccccc1)c1ccccc1 (centres unmarked) [Compound 11b, [1-Amino-2-(naphyhalen-2-yloxy)allyl]diphenylphosphine oxide] | – | 2.7 ± 0.44 µM | 33.6 ± 3.73 µM | –
C=C(Oc1ccccc1)C(NS(=O)(=O)c1ccc(C)cc1)P(=O)(OCC)OCC (centres unmarked) [Compound 12a, Diethyl [1-((4-methylphenyl)sulfonamido)-2-phenoxyallyl]phosphonate] | 117 to 119 °C | 4.8 ± 0.9 µM | – | IC50 (in vitro): > 50 µM
C=C(Oc1ccc2ccccc2c1)C(NS(=O)(=O)c1ccc(C)cc1)P(=O)(OCC)OCC (centres unmarked) [Compound 12b, Diethyl [1-((4-methylphenyl)sulfonamido)-2-(naphthalen-2-yloxy)allyl]-phosphonate] | 147 to 149 °C | 2.1 ± 0.22 µM | – | IC50 (in vitro): 17.5 ± 1.47 µM
C=C(Sc1ccccc1)C(N)P(=O)(c1ccccc1)c1ccccc1 (centres unmarked) [Compound 15a, [1-Amino-2-(phenylthio)allyl]diphenylphosphine oxide] | – | 2.6 ± 0.68 µM | 15.9 ± 2.79 µM | IC50 [2]: > 50 µM; toxicity toward RKO (in words) [2]: do not exhibited any toxicity
C=C(Sc1ccc(C)cc1)C(N)P(=O)(c1ccccc1)c1ccccc1 (centres unmarked) [Compound 15b, [1-Amino-2-(p-tolylthio)allyl]diphenylphosphine oxide] | – | 5.1 ± 0.77 µM | 14.9 ± 1.61 µM | –
C=C(Sc1ccc(F)cc1)C(N)P(=O)(c1ccccc1)c1ccccc1 (centres unmarked) [Compound 15c, [1-Amino-2-((4-fluorophenyl)thio)allyl]diphenylphosphine oxide] | – | 0.1 ± 0.08 µM | > 50 µM | IC50 [2]: > 50 µM; toxicity toward RKO (in words) [2]: do not exhibited any toxicity
C=C(Sc1ccc(OC)cc1)C(N)P(=O)(c1ccccc1)c1ccccc1 (centres unmarked) [Compound 15d, [1-Amino-2-((4-methoxyphenyl)thio)allyl]diphenylphosphine oxide] | – | 2.6 ± 0.42 µM | > 50 µM | –
C=C(Sc1ccccc1)C(N)P(=O)(OCC)OCC (centres unmarked) [Compound 15e, Diethyl [1-amino-2-(phenylthio)allyl]phosphonate] | – | – | – | IC50 [1, 5]: 7.2 ± 0.49 µM
C=C(Sc1ccccc1)C(NS(=O)(=O)c1ccc(C)cc1)P(=O)(c1ccccc1)c1ccccc1 (centres unmarked) [Compound 16a, N-[1-(Diphenylphosphoryl)-2-(phenylthio)allyl]-4-methylbenzenesulfonamide] | 199 to 201 °C | 1.2 ± 0.09 µM | > 50 µM | –
C=C(Sc1ccc(C)cc1)C(NS(=O)(=O)c1ccc(C)cc1)P(=O)(c1ccccc1)c1ccccc1 (centres unmarked) [Compound 16b, N-[1-(Diphenylphosphoryl)-2-(p-tolylthio)allyl]-4-methylbenzene-sulfonamide] | 180 to 182 °C | 2.1 ± 0.15 µM | > 50 µM | –
C=C(Sc1ccccc1)C(NS(=O)(=O)c1ccc(C)cc1)P(=O)(OCC)OCC (centres unmarked) [Compound 16c, Diethyl [1-((4-methylphenyl)sulfonamido)-2-(phenylthio)allyl]phosphonate] | 99 to 101 °C | 0.2 ± 0.07 µM | – | IC50 (in vitro): 24.1 ± 3.55 µM; IC50 [2]: > 50 µM; toxicity toward RKO (in words) [2]: do not exhibited any toxicity
C=C(Sc1ccc(F)cc1)C(NS(=O)(=O)c1ccc(C)cc1)P(=O)(OCC)OCC (centres unmarked) [Compound 16d, Diethyl [2-((4-fluorophenyl)thio)-1-((4-methylphenyl)sulfonamido)-allyl]-phosphonate] | 117 to 119 °C | 3 ± 0.98 µM | – | IC50 (in vitro): > 50 µM
C=C(Sc1ccc(C)cc1)C(NS(=O)(=O)c1ccc(C)cc1)P(=O)(OCC)OCC (centres unmarked) [Compound 16e, Diethyl [1-((4-methylphenyl)sulfonamido)-2-(p-tolylthio)allyl]phos-phonate] | 168 to 170 °C | 3.9 ± 0.63 µM | – | IC50 (in vitro): > 50 µM
